The subject of this test is T-47D cells. The test is described as follows: Cell cycle arrest and apoptosis by propidium iodide flow cytometry in T-47D cells. The following applies: 48 h. Format: cell-based, Human. The protocol: T-47D, a breast cancer cell line, was maintained and harvested as described in Example 221. 5×10^5 Cells were treated with 0.2 μM of 4-(3-methoxyanilino)-2-(2-pyridinyl)-6-(trifluoromethyl)pyrimidine for 48 h at 37° C. As a control, cells were also incubated with equivalent amount of solvent (DMSO). Cells were harvested at 1,200 rpm and then transferred to 12×75 mm polystyrene tubes. Cells were then resuspended in 500 μl of 1% Na Citrate, 0.1% Triton X-100, and 50 μg/ml of propidium iodide and incubated at room temperature for 30 min followed by flow cytometer analysis. All flow cytometry analyses were performed on FACScalibur (Becton Dickinson) using Cell Quest analysis software. The x-axis plotted the amount of fluorescence and the y-axis is plotted the number of cells with the indicated fluorescence. The T-47D control cell population profile is seen in FIG. 1A and the increase in G2/M DNA content cells that is seen when treated with 4-(3-methoxyanilino)-2-(2-pyridinyl)-6-(trifluoromethyl)pyrimidine at 0.2 μM is seen in FIG. 1B. An increase in the sub-diploid DNA content of cells (FIG. 1) is also seen to increase from 2% to 25% with compound treatment. The sub-diploid amount of DNA is indicative of apoptotic cells which have undergone DNA degradation or fragmentation.

For the compound `COc1cccc(Nc2cc(C(F)(F)F)nc(-c3ccccn3)n2)c1` [Compound A, 4-(3-methoxyanilino)-2-(2-pyridinyl)-6-(trifluoromethyl)pyrimidine], the “sub-diploid DNA content of cells” value (0.2 μM, control 2%) is given as 25%. In addition, for the setting “200 nM, versus control cells”, the G1 population result is reported as “reduction” and the “G2/M population (G2/M DNA content cells)” value is recorded as “increase”.

For the origin of these results see US6716851B2, “Substituted 2-aryl-4-arylaminopyrimidines and analogs as activators or caspases and inducers of apoptosis and the use thereof” (Cytovia, Inc., priority 2000, dated 2004).
